How the values were obtained:
[1] = tested on: constitutive active colorectal cancer cell (CRC) Wnt pathway; assay: HCT116 TOPFlash cellular reporter assay (Super TopFlash luciferase), constitutive active Wnt pathway; type: cell-based; settings: HCT116 TOP reporter cells, 36 hours incubation, luciferase expression
Description: In order to discover and characterize small molecules which inhibit the constitutive active colorectal cancer cell (CRC) Wnt pathway, a cellular reporter assay was employed. […] Stable transfectants were generated by cotransfection with pcDNA3 and selection of stable transfected cells with 1 mg/ml G418.

[2] = tested on: HCT116 FOP control reporter cell line; assay: HCT116 FOPFlash control reporter assay (FOP control vector, non-functional TCF elements); type: cell-based; settings: HCT116 FOP control reporter cells, 36 hours incubation, luciferase expression
Text: In a parallel approach, HCT116 cells were cotransfected with the FOP control vector and pcDNA3. The FOP vector is identical to the TOP construct, but it contains instead of functional TCF elements a randomized, non-functional sequence. For this transfection a stable transfected cell line was generated as well.

SMILES | IC50 ([1]; Homo sapiens, HCT-116, 36 h) [nM] | IC50 ([2]; Homo sapiens, HCT-116, 36 h) [nM] | IC50 [1] [nM] | IC50 [2] [nM]
O=C(CN1CCOCC1)Nc1cc(C(=O)Nc2ccc(-c3ccccc3)nc2)ccc1C(F)(F)F [Example 13, 3-[(morpholin-4-ylacetyl)amino]-N-(6-phenylpyridin-3-yl)-4-(trifluoromethyl)benzamide] | 362 | ≥ 50000 | – | –
CC(C(=O)Nc1cc(NC(=O)c2ccc(-c3ccccc3F)nc2)ccc1OC(F)(F)F)N1CCOCC1 (stereo not drawn) [Example 213, 6-(2-fluorophenyl)-N-[3-{[2-(morpholin-4-yl)propanoyl]amino}-4-(trifluoromethoxy)phenyl] nicotinamide] | – | – | 140 | ≥ 50000
O=C(CN1CCN(C2CC2)CC1)Nc1cc(C(=O)Nc2nnc(-c3ccccc3)s2)ccc1OCC1CC1 [Example 265, 4-(cyclopropylmethoxy)-3-{[(4-cyclopropylpiperazin-1-yl)acetyl]amino}-N-(5-phenyl-1,3,4-thiadiazol-2-yl)benzamide] | 320 | ≥ 50000 | – | –
CC(C(=O)Nc1cc(NC(=O)c2ccc(-c3ccccc3F)nc2)ccc1OC(F)(F)F)N1CC2CCC(C1)O2 (stereo not drawn) [Example 212, 6-(2-fluorophenyl)-N-[3-{[2-(8-oxa-3-azabicyclo[3.2.1]oct-3-yl)propanoyl]amino}-4-(trifluoromethoxy)phenyl] nicotinamide] | – | – | 180 | ≥ 50000
O=C(CN1CCOCC1)Nc1cc(NC(=O)c2noc(-c3ccccc3)n2)ccc1OC(F)(F)F [Example 121, N-{3-[(morpholin-4-ylacetyl)amino]-4-(trifluoromethoxy)phenyl}-5-phenyl-1,2,4-oxadiazole-3-carboxamide] | 825 | ≥ 50000 | – | –
CC(C(=O)Nc1cc(C(=O)Nc2ccc(-c3cc(F)cc(F)c3)nc2)ccc1OC(F)(F)F)N1C[C@@H]2C[C@H]1CO2 (relative stereo) [Example 181, N-[6-(3,5-difluorophenyl)pyridin-3-yl]-3-({(2S*)-2-[(1S,4S)-2-oxa-5-azabicyclo[2.2.1]hept-5-yl]propanoyl}amino)-4-(trifluoromethoxy)benzamide] | – | – | 53 | ≥ 50000
COc1ccc(C(=O)Nc2ccc(-c3ccccc3F)nc2)cc1NC(=O)C1(N2CCOCC2)CCC1 [Example 82, N-[6-(2-fluorophenyl)pyridin-3-yl]-4-methoxy-3-({[1-(morpholin-4-yl)cyclobutyl]carbonyl}amino)benzamide] | 2550 | ≥ 50000 | – | –
CC(C(=O)Nc1cc(NC(=O)c2ccc(-c3cc(F)cc(F)c3)nc2)ccc1OC(F)(F)F)N1CC2CCC(C1)O2 (stereo not drawn) [Example 202, 6-(3,5-difluorophenyl)-N-[3-{[2-(8-oxa-3-azabicyclo[3.2.1]oct-3-yl)propanoyl]amino}-4-(trifluoromethoxy)phenyl] nicotinamide] | – | – | 200 | 5800
CN1CCN(CC(=O)Nc2cc(C(=O)Nc3ccc(-c4ccccc4)cn3)ccc2OC(F)(F)F)CC1 [Example 158, 3-{[(4-methylpiperazin-1-yl)acetyl]amino}-N-(5-phenylpyridin-2-yl)-4-(trifluoromethoxy)benzamide] | 73.6 | 21800 | – | –
CC(C(=O)Nc1cc(C(=O)Nc2nnc(-c3ccccc3)s2)ccc1CS(C)(=O)=O)N1CCN(C)CC1 (stereo not drawn) [Example 231, 3-{[2-(4-methylpiperazin-1-yl)propanoyl]amino}-4-[(methylsulfonyl)methyl]-N-(5-phenyl-1,3,4-thiadiazol-2-yl)benzamide] | – | ≥ 50000 | 1020 | –
Cc1ccc(C(=O)Nc2nnc(-c3ccccc3)s2)cc1NC(=O)C1(N2CCOCC2)CC1 [Example 103, 4-methyl-3-({[1-(morpholin-4-yl)cyclopropyl]carbonyl}amino)-N-(5-phenyl-1,3,4-thiadiazol-2-yl)benzamide] | 752 | 21000 | – | –
CN(C(=O)CN1CCOCC1)c1cc(C(=O)Nc2ccc(-c3ccccc3)nc2)ccc1OC(F)(F)F [Example 228, 3-[methyl(morpholin-4-ylacetyl)amino]-N-(6-phenylpyridin-3-yl)-4-(trifluoromethoxy)benzamide] | 2870 | 29000 | – | –
C[C@@H](C(=O)Nc1cc(C(=O)Nc2ccc(-c3ccc(CO)cc3)nc2)ccc1OC(F)(F)F)N1CCOCC1 (single isomer, unassigned) [Example 120, N-{6-[4-(hydroxymethyl)phenyl]pyridin-3-yl}-3-{[(2S)-2-(morpholin-4-yl)propanoyl]amino}-4-(trifluoromethoxy)benzamide or N-{6-[4-(hydroxymethyl)phenyl]pyridin-3-yl}-3-{[(2R)-2-(morpholin-4-yl)propanoyl]amino}-4-(trifluoromethoxy)benzamide] | – | – | 105 | ≥ 50000
CN1CCN(C2(C(=O)Nc3cc(C(=O)Nc4ccc(-c5ccccc5F)nc4)ccc3OC(F)(F)F)CC2)CC1 [Example 236, N-[6-(2-fluorophenyl)pyridin-3-yl]-3-({[1-(4-methylpiperazin-1-yl)cyclopropyl]carbonyl}amino)-4-(trifluoromethoxy)benzamide] | 276 | ≥ 50000 | – | –
COc1ccc(C(=O)Nc2ccc(-c3ccccc3)nc2)cc1NC(=O)CN1CCOCC1 [Example 4, 4-methoxy-3-[(morpholin-4-ylacetyl)amino]-N-(6-phenylpyridin-3-yl)benzamide] | 300 | ≥ 50000 | – | –
O=C(CN1C[C@@H]2C[C@H]1CO2)Nc1cc(C(=O)Nc2nnc(-c3ccccc3)s2)ccc1OC(F)(F)F [Example 254, 3-{[(1S,4S)-2-oxa-5-azabicyclo[2.2.1]hept-5-ylacetyl]amino}-N-(5-phenyl-1,3,4-thiadiazol-2-yl)-4-(trifluoromethoxy)benzamide] | 4340 | ≥ 50000 | – | –
CC(C(=O)Nc1cc(NC(=O)c2ccc(-c3cc(F)cc(F)c3)nc2)ccc1OC(F)(F)F)N1C[C@@H]2C[C@H]1CO2 (relative stereo) [Example 217, 6-(3,5-difluorophenyl)-N-[3-({(2S*)-2-[(1S,4S)-2-oxa-5-azabicyclo[2.2.1]hept-5-yl]propanoyl}amino)-4-(trifluoromethoxy)phenyl] nicotinamide] | – | – | 438 | ≥ 50000

Results, then the molecule that gave them:

IC50 ([1]; Homo sapiens, HCT-116, 36 h) [nM] | IC50 ([2]; Homo sapiens, HCT-116, 36 h) [nM] | IC50 [1] [nM] | IC50 [2] [nM] | SMILES
220 | ≥ 50000 | – | – | C[C@@H]1CN(CC(=O)Nc2cc(C(=O)Nc3ccc(-c4ccccc4F)nc3)ccc2OC(F)(F)F)CCN1C [Example 164, 3-({[(3R)-3,4-dimethylpiperazin-1-yl]acetyl}amino)-N-[6-(2-fluorophenyl)pyridin-3-yl]-4-(trifluoromethoxy)benzamide]
200 | ≥ 50000 | – | – | CN1CCN(CC(=O)Nc2cc(C(=O)Nc3nnc(-c4cccc(F)c4)s3)ccc2OC(F)(F)F)CC1 [Example 152, N-[5-(3-fluorophenyl)-1,3,4-thiadiazol-2-yl]-3-{[(4-methylpiperazin-1-yl)acetyl]amino}-4-(trifluoromethoxy)benzamide]
196 | 11000 | – | – | O=C(CN1C[C@@H]2C[C@H]1CO2)Nc1cc(NC(=O)c2ccc(-c3cc(F)cc(F)c3)nc2)ccc1OC(F)(F)F [Example 184, 6-(3,5-difluorophenyl)-N-[3-{[(1S,4S)-2-oxa-5-azabicyclo[2.2.1]hept-5-ylacetyl]amino}-4-(trifluoromethoxy)phenyl] nicotinamide]
150 | ≥ 50000 | – | – | COCCN(C)CC(=O)Nc1cc(C(=O)Nc2nnc(-c3ccccc3)s2)ccc1OC(F)(F)F [Example 85, 3-{[N-(2-methoxyethyl)-N-methylglycyl]amino}-N-(5-phenyl-1,3,4-thiadiazol-2-yl)-4-(trifluoromethoxy)benzamide]
148 | 8800 | – | – | CC(C(=O)Nc1cc(NC(=O)c2ccc(-c3cccc(F)c3)nc2)ccc1OC(F)(F)F)N1C[C@@H]2C[C@H]1CO2 (relative stereo) [Example 193, 6-(3-fluorophenyl)-N-[3-({(2R*)-2-[(1S,4S)-2-oxa-5-azabicyclo[2.2.1]hept-5-yl]propanoyl}amino)-4-(trifluoromethoxy)phenyl] nicotinamide]
204 | ≥ 50000 | – | – | CC(C(=O)Nc1cc(C(=O)Nc2ncc(-c3ccccc3)s2)ccc1C(C)(C)C)N1CCOCC1 (stereo not drawn) [Example 143, 4-tert-butyl-3-{[2-(morpholin-4-yl)propanoyl]amino}-N-(5-phenyl-1,3-thiazol-2-yl)benzamide]
85.8 | 42200 | – | – | O=C(CN1CCOCC1)Nc1cc(C(=O)Nc2ccc(-c3ccccc3F)nc2)ccc1C(F)(F)F [Example 74, N-[6-(2-fluorophenyl)pyridin-3-yl]-3-[(morpholin-4-ylacetyl)amino]-4-(trifluoromethyl)benzamide]
143 | ≥ 50000 | – | – | CC(C(=O)Nc1cc(C(=O)Nc2ccc(-c3ccccc3F)nc2)ccc1OC(F)(F)F)N1CCN(C2CC2)CC1 (stereo not drawn) [Example 196, 3-{[2-(4-cyclopropylpiperazin-1-yl)propanoyl]amino}-N-[6-(2-fluorophenyl)pyridin-3-yl]-4-(trifluoromethoxy)benzamide]
250 | ≥ 50000 | – | – | Nc1ccc(-c2nnc(NC(=O)c3ccc(OC(F)(F)F)c(NC(=O)CN4CCOCC4)c3)s2)cc1 [Example 263, N-[5-(4-aminophenyl)-1,3,4-thiadiazol-2-yl]-3-[(morpholin-4-ylacetyl)amino]-4-(trifluoromethoxy)benzamide]
238 | 17100 | – | – | CC(C(=O)Nc1cc(C(=O)Nc2ccc(-c3cc(F)cc(F)c3)nc2)ccc1OC(F)(F)F)N1C[C@@H]2C[C@H]1CO2 (stereo partly drawn) [Example 223, N-[6-(3,5-difluorophenyl)pyridin-3-yl]-3-({2-[(1S,4S)-2-oxa-5-azabicyclo[2.2.1]hept-5-yl]propanoyl}amino)-4-(trifluoromethoxy)benzamide]

Reference: patent US10130633B2, “Compounds” (BAYER PHARMA AKTIENGESELLSCHAFT, priority 2013, dated 2018)
